Our source for the inhibition and Ki values is patent publication US7998978B2 (Pfizer Inc., priority 2006, dated 2011).

T1 sequence (P45983 1-364): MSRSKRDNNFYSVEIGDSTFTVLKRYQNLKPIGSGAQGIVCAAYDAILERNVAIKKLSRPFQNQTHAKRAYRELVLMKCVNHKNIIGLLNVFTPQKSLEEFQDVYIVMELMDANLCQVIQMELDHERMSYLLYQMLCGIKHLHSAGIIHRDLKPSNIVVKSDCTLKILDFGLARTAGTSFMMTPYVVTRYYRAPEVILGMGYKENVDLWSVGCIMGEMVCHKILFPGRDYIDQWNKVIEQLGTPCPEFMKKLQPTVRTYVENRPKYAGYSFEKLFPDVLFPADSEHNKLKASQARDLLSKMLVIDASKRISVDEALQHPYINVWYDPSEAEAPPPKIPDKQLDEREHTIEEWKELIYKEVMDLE

One assay has as its target T1, JNK1α1 (Homo sapiens, UniProt P45983).
T1 construct: catalytic domain containing amino acids 1-364 and N-terminal hexahistidine tag; hexahistidine (His6) (N); made in house; host or cells: E. coli BL21 (DE3)
The experiment in a line: Coupled spectrophotometric (PK/LDH) JNK1α1 assay: % inhibition and Ki determination. It counts as biochemical. As to conditions: @1 uM; read-out: % Inhibition JNK-1. The method, boiled down: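 Initial rates were taken from the absorbance decrease at 340 nm at 30° C. Ki was fitted with a tight-binding model over 11 concentrations (top 100 μM); single-point inhibition was tested at 1 or 10 μM.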
As for `Cc1noc(C(NC(=O)c2cccc3cnc(N[C@H]4CC[C@H](O)CC4)nc23)c2ccccc2)n1` (stereo partly drawn) [Example 527, 2-[(trans-4-hydroxycyclohexyl)amino]-N-[(3-methyl-1,2,4-oxadiazol-5-yl)(phenyl)methyl]quinazoline-8-carboxamide], the inhibition (as a rule, the change of the read-out against control, counted positive when it falls) at 1 µM came to 34%.

Turning to `Cc1noc(C)c1COc1ccc2cnc(N[C@H]3CC[C@H](O)CC3)nc2c1` [Example 295, trans-4-({7-[(3,5-dimethylisoxazol-4-yl)methoxy]quinazolin-2-yl}amino)cyclohexanol], the inhibition at 1 µM stood at 71%. On the same count and under the same terms, then `CC(C)Nc1ncc2ccc(C(=O)N[C@@H]3COC[C@H]3O)cc2n1` [Example 432, N-((3R,4S)-4-hydroxytetrahydrofuran-3-yl]-2-(isopropylamino)quinazoline-7-carboxamide], with 15%. On the same count and under the same terms, then `O[C@H]1CC[C@H](Nc2ncc3ccc(OC4CCCN(Cc5ccccn5)C4)cc3n2)CC1` (stereo partly drawn) [Example 286, trans-4-[(7-{[1-(pyridin-2-ylmethyl)piperidin-3-yl]oxy}quinazolin-2-yl)amino]cyclohexanol], with 42%; and `COc1ncccc1NC(=O)c1cccc2cnc(N[C@H]3CC[C@H](O)CC3)nc12` [Example 316, 2-[(trans-4-hydroxycyclohexyl)amino]-N-(2-methoxypyridin-3-yl)quinazoline-8-carboxamide], with 18%. The same measure, in the same setting: then `COC[C@H]1CCC[C@H]1NC(=O)c1cccc2cnc(N[C@H]3CC[C@H](O)CC3)nc12` [Example 506, 2-[(trans-4-hydroxycyclohexyl)amino]-N-[(1R,2S)-2-(methoxymethyl)cyclopentyl]quinazoline-8-carboxamide], with 37%; and `O[C@H]1CC[C@H](Nc2ncc3ccc(OC[C@H]4CCCN4Cc4ccccc4)cc3n2)CC1` [Example 294, trans-4-[(7-{[(2R)-1-benzylpyrrolidin-2-yl]methoxy}quinazolin-2-yl)amino]cyclohexanol], with 24%. Turning to `CN1CCC(Oc2cccc3cnc(N[C@H]4CC[C@H](O)CC4)nc23)CC1` [Example 254, trans-4-({8-[(1-methylpiperidin-4-yl)oxy]quinazolin-2-yl}amino)cyclohexanol], the inhibition at 1 µM was 17%.

The assay is the same for the next values; noted with them: @10 uM; read-out: % Inhibition JNK-1.
As for `CC(C)Nc1ncc2ccc(C(=O)NC(C)(C)CO)cc2n1` [Example 440, N-(2-hydroxy-1,1-dimethylethyl)-2-(isopropylamino)quinazoline-7-carboxamide], the inhibition at 10 µM stood at 48%.

Regarding `C[C@@H](CO)NC(=O)c1ccc2cnc(NC3CCC3)nc2c1` [Example 437, 2-(cyclobutylamino)-N-[(1S)-2-hydroxy-1-methylethyl]quinazoline-7-carboxamide], the inhibition at 10 µM is 57%. Still for that read-out and setting: then `O=C(NCc1noc(-c2ccccc2)n1)c1cccc2cnc(N[C@H]3CC[C@H](O)CC3)nc12` [Example 501, 2-[(trans-4-hydroxycyclohexyl)amino]-N-[(5-phenyl-1,2,4-oxadiazol-3-yl)methyl]quinazoline-8-carboxamide], with 60%.

Still in this assay, the particulars now being: JNK-1.
For the compound `O=C(N[C@H](CO)Cc1ccccc1)c1ccc2cnc(N[C@H]3CC[C@H](O)CC3)nc2c1` [Example 402, N-[(1S)-1-benzyl-2-hydroxyethyl]-2-[(trans-4-hydroxycyclohexyl)amino]quinazoline-7-carboxamide], the inhibition constant (Ki) – broadly, a dissociation constant, usually derived from enzyme kinetics or from competition with a known ligand – amounted to 605 nM. The same measure, in the same setting: then `O=C(N[C@H]1CC[C@H](O)CC1)c1ccc2cnc(N[C@H]3CC[C@H](O)CC3)nc2c1` [Example 328, N-(trans-4-hydroxycyclohexyl)2[(trans-4-hydroxycyclohexyl)amino]quinazoline-7-carboxamide], with 257 nM; and `Cc1ccc2cnc(N[C@H]3CC[C@H](O)CC3)nc2c1OCC(=O)N1CCS(=O)(=O)CC1` [Example 214, trans-4-({8-[2-(1,1-dioxidothiomorpholin-4-yl)-2-oxoethoxyl]-7-methylquinazolin-2-yl}amino) cyclohexanol], with 1300 nM; and `O=C(NCC1CCOC1)c1cccc2cnc(N[C@H]3CC[C@H](O)CC3)nc12` (stereo partly drawn) [Example 117, 2-[(trans-4-hydroxycyclohexyl)amino]-N-(tetrahydrofuran-3-ylmethyl)quinazoline-8-carboxamide], with 250 nM. On the same count and under the same terms, then `O=C(N[C@@H]1Cc2ccccc2[C@H]1O)c1cccc2cnc(N[C@H]3CC[C@H](O)CC3)nc12` [Example 459, 2-[(trans-4-hydroxycyclohexyl)amino]-N-[(1R,2R)-1-hydroxy-2,3-dihydro-1H-inden-2-yl]quinazoline-8-carboxamide], with 399 nM; and `Cc1ccc2cnc(N[C@H]3CC[C@H](O)CC3)nc2c1OCC(=O)NC(C)C` [Example 208, 2-({2-[(trans-4-hydroxycyclohexyl)amino]-7-methylquinazolin-8-yl}oxy)-N-isopropylacetamide], with 1130 nM. In turn, `CC(=O)N[C@H]1CC[C@H](Nc2ncc3ccc(OC4CCOC4)cc3n2)CC1` (stereo partly drawn) [Example 164, N-(trans-4-{[7-(tetrahydrofuran-3-yloxy)quinazolin-2-yl]amino}cyclohexyl)acetamide] returned a Ki of 416 nM.

`O=C(NCCc1ccccc1)c1ccc2cnc(N[C@H]3CC[C@H](O)CC3)nc2c1` [Example 82, 2-[(trans-4-hydroxycyclohexyl)amino]-N-(2-phenylethyl)quinazoline-7-carboxamide] had a Ki of 235 nM. In the case of `O=C(NC1CCCC1)c1cccc2cnc(N[C@H]3CC[C@H](O)CC3)nc12` [Example 115, N-cyclopentyl-2-[(trans-4-hydroxycyclohexyl)amino]quinazoline-8-carboxamide], affinity was put at a Ki of 230 nM.

For `CC(C)C[C@@H](CO)NC(=O)c1ccc2cnc(NC3CCCCC3)nc2c1` [Example 374, 2-(cyclohexylamino)-N-[(1S)-1-(hydroxymethyl)-3-methylbutyl]quinazoline-7-carboxamide], the Ki came out at 102 nM. In turn, `O=C(NCC1(O)CCOCC1)c1ccc2cnc(N[C@H]3CC[C@H](O)CC3)nc2c1` [Example 360, 2-[(trans-4-hydroxycyclohexyl)amino]-N-[(4-hydroxytetrahydro-2H-pyran-4-yl)methyl]quinazoline-7-carboxamide] showed a Ki of 1730 nM. The same measure, in the same setting: then `CS(=O)(=O)CCNC(=O)c1cccc2cnc(N[C@H]3CC[C@H](O)CC3)nc12` [Example 106, 2-[(trans-4-hydroxycyclohexyl)amino]-N-[2-(methylsulfonyl)ethyl]quinazoline-8-carboxamide], with 223 nM; and `O=C(Cc1ccc(Oc2ccnc3ccsc23)cc1)Nc1cc2cc(-c3cn[nH]c3)ccc2cn1` [Example 24, N-[6-(1H-pyrazol-4-yl)isoquinolin-3-yl]-2-[4-(thieno[3,2-b]pyridin-7-yloxy)phenyl]acetamide], with 25 nM; and `CCn1ccnc1CNC(=O)c1ccc2cnc(N[C@H]3CC[C@H](O)CC3)nc2c1` [Example 333, N-[(1-ethyl-1H-imidazol-2-yl)methyl]-2-([trans-4-hydroxycyclohexyl)amino]quinazoline-7-carboxamide], with 455 nM. In turn, `O=C(NC1(c2ccccn2)CC1)c1cccc2cnc(N[C@H]3CC[C@H](O)CC3)nc12` [Example 462, 2-[(trans-4-hydroxycyclohexyl)amino]-N-(1-pyridin-2-ylcyclopropyl)quinazoline-8-carboxamide] returned a Ki of 471 nM. Still for that read-out and setting: then `CC1(CNC(=O)c2cccc3cnc(N[C@H]4CC[C@H](O)CC4)nc23)COC1` [Example 453], with 170 nM.
